The test system of data set [1] is patients after Roux-en-Y gastric bypass. Kind of data set: Postprandial hyperinsulinemic hypoglycemia after RYGB, case series. The format is in vivo, human. The protocol: Cases report: Case (1) A person developed postprandial hypoglycemic episodes 6 years after Roux-en-Y gastric bypass (RYGB). A mixed meal tolerance test (MMTT, 500 kcal, 20% protein, 20% fat and 60% carbohydrates) was performed, leading to symptomatic postprandial hyperinsulinemic hypoglycemia (PHH) with a nadir of 45 mg/dL at 120 min (insulin of 8 mU/L; C-peptide of 3.21 ng/mL). […] Cases 2 and 3). Two […] women presented hypoglycemia following meals 3 and 5 years after RYGB. MMTT (120 min): glycemia of 34 mg/dL, insulin of 17 mU/L and C-peptide of 6.23 ng/mL and, in the second one, glycemia of 52 mg/dL, insulin of 9 mU/L and C-peptide of 2.7 ng/mL. PT and MRCP were normal in both cases. […] Case 4). A person who underwent RYGB 1.5 years ago reported hypoglycemic episodes in the last 6 months. MMTT: glycemia of 26 mg/dL at 150 min, insulin of 34 mU/L and C-peptide of 6.03 ng/mL. […] They were submitted to distal pancreatectomy and symptoms disappeared after diazoxid and hydrochlorothiazide. Case 5). A person developed hypoglycemia 10 years after RYGB. […] MMTT: glycemia of 43 mg/dL at 120 min, insulin of 100 mU/L and C-peptide of 1.95 ng/mL. […] Antiinsulin antibodies were negative in all cases (Table 1).

Data set [2] has as its system patient with T2DM. The data set is described as follows: Case report: endogenous hyperinsulinism in T2DM. The conditions noted are these: Acarbose prescribed 2 years ago; Verapamil 80 mg/day with dietary changes. Format: in vivo, human. From the text: patient three diagnosed with type 2 diabetes (T2DM), using insulin for 22 years. Eight years ago, they started to present frequent episodes of symptomatic hypoglycemia, preferably in fasting periods. There was no cessation of the episodes even with the suspension of all insulin and antidiabetic drugs, which lead to an investigation with a prolonged fasting test (Table 1). The test confirmed endogenous hyperinsulinism (EH). […] They were then submitted to a selective arterial calcium stimulation test (SACST), whose results excluded insulinoma. […] Verapamil (80 mg/day) was initiated along with dietary changes, with good response.

Data set [3] concerns hypothalamus of young rats. Kind of data set: Chronic ICV treatment with the nitric oxide donor GSNO. Format: in vivo, rat.
For data set [4], the system named is T2DM patients. The conditions noted are these: monotherapy; systematic review and mixed treatment meta-analyses comparison of RCTs; cited from earlier work. From the text: Results: All DPP4 presented a statistically significant change of HbA1c from baseline compared to placebo (alogliptin − 0.797 (95%CI − 0.943 to − 0.651); linagliptin − 0.734 (CI − 0.88 to − 0.588); saxagliptin − 0.593 (CI − 0.811 to − 0.375); sitagliptin -0.788 (CI − 0.954 to − 0.622); vildagliptin −0.60 (CI − 0.80 to − 0.40)). Based on drug acquisition costs, alogliptin monotherapy presented the lowest annual treatment costs and the lowest cost for every 1% HbA1c reduction followed by saxagliptin, linagliptin, sitagliptin and vildagliptin (Table 1).

The test system of data set [5] is patients with T1DM. Kind of data set: High dose vitamin D for 12 weeks, DKD/albuminuria pilot study. Format: in vivo, human. An excerpt: Methods: 22 patients received doses of 4000 and 10000 IU/day of cholecalciferol for 12 weeks according to patient’s previous VD levels. They were submitted to continuous glucose monitoring system (CGMS), 24-h ABPM and urine albumin-to-creatinine ratio (UACR) before and after VD supplementation.

The test system of data set [6] is patient with T2DM. The format is in vivo. The conditions noted are these: systemic treatment.
Text: After evaluation and exclusion of other diagnoses (medication use, trauma, or facial surgery) as well as exclusion of another kind of diabetic neuropathy, such as sensitive or cardiac autonomic neuropathy, the hypothesis of diabetic gustatory sweating (DGS) was established.
Data set [7] deals with patient with DM2 and PAH. The data set is described as follows: Vildagliptin in T2DM with pulmonary arterial hypertension, case report. The format is in vivo, human. An excerpt:
The main etiology of pulmonary arterial hypertension (PAH) is idiopathic. In more than one-third of these cases, patients have criteria for metabolic syndrome. Alone, obesity, dyslipidemia and type 2 diabetes mellitus (T2DM) have a direct and indirect relationship in the pathophysiology of PAH. The presence of glucagon-like peptide-1 (GLP1) receptors in different organs of our body gives this incretin several pleiotropic effects, in addition to its already well established role in the treatment of obesity and T2DM. […] Considering this and using a weight-neutral incretin-based therapy, we opted for the use of a DPP4 inhibitor (vildagliptin 50 mg 2×/day) to increase GLP1 levels in a patient with DM2, hypertension, dyslipidemia, obesity grade I (BMI of 30.2 kg/m2) and PAH.

Data set [8] deals with participants with T2DM. The data set is described as follows: Vitamin D supplementation, randomized placebo-controlled trial, oxidative stress biomarkers. The format is in vivo, human. As for the experimental part: Methods: The participants (n = 31; age 46 ± 6.45 years; sex 21/10 female/male) with T2DM were enrolled in this study in two groups. One group received one capsule/week of vitamin D (50.000 U) or placebo for 90 days. At the beginning and after intervention, laboratory analyses (biochemical and OS markers) were performed. After fasting for 12 h, the subjects underwent the following laboratory blood analysis: glucose, lipid profile, uric acid, and C-reactive protein (CRP) which were evaluated by a biochemical autoanalyzer (Dimension Dade AR; Dade Behring), insulin and vitamin D were evaluated by MEIA (AxSYM, Abbott Laboratory, Abbott Park, IL, USA). Advanced oxidation protein products (AOPP) were determined in the plasma using the semiautomated method described by Witko-Sarsat. Analysis of plasma hydroperoxide concentrations was evaluated by two methods (tertbutyl hydroperoxide-initiated chemiluminescence and FOX assay). This study was conducted according to the principles of the Helsinki, and the study protocol was approved by the ethics committee of the University (CAAE: 41718014.9.0000.5231). Kruskal- Wallis with post hoc Dunn’test was performed to verify differences across intervention (placebo or vitamin D). Graph Pad Instat 3 version was used for evaluations.

For data set [9], the system named is patient with metastatic melanoma. Kind of data set: Ipilimumab endocrinological side effects, case report. Format: in vivo, human. From the text: In the last couple of years, monoclonal antibodies have emerged as effective therapies for advanced neoplasms. […] CTLA-4 is expressed on the surface of T lymphocytes and transmits an inhibitory signal through its B7-1/2 linker. In blocking the CTLA-4, Ipilimumab promotes an enhancement of T cell activation against neoplasms. During the treatment, the activation of these cells can also be directed to different organs/tissues and affect the skin (dermatitis), gastrointestinal tract (colitis, pancreatitis, hepatitis), lung (pneumonitis) and endocrine glands (thyroiditis, hypophysitis, adrenalitis). […] The patient is a person previously healthy, with a diagnosis of metastatic melanoma. They were subjected to surgical removal of the skin lesion and infraclavicular lymph node, in addition to adjuvant treatment with Ipilimumab. They performed four cycles of this medication and evolved with asthenia, headache, abdominal pain and hyperglycemia, about 3 weeks after the last cycle. They were hospitalized and during the medical investigation the following were detected: low ACTH, low cortisol and hyperprolactinemia—characterizing hypophysitis. Furthermore, there was an elevation of amylase and lipase and hyperglycemia, with levels above 400 mg/dL, requiring insulinization. […]

Data set [10] relates to patient with BSCL. The data set is described as follows: Case report: metreleptin in Berardinelli-Seip congenital lipodystrophy. Format: in vivo, human. The protocol:
Case presentation: Two brothers with neonatal diagnosis of Berardinelli-Seip Congenital Lipodystrophy (BSCL), without cases of diabetes or similar diseases in their family. Clinically, both present muscular hypertrophy and acromegaloid features. […] Serum leptin 1 ng/mL (reference range: 2–18). […] Leptin 1.3 ng/mL. In 2016, HbA1C 7.8%, in use of Metformin 2 g/day, pioglitazone and vitamins E, A and D supplementation. […] By that time, Metreleptin was initiated at a 5 mg/day dose (0.07 mg/kg/day) and Metformin was maintained. After 3 months, the patient has HbA1C 5%, triglyceride level 70 mg/dL, TGO 42 U/L and TGP 32 U/L.

Regarding `C[C@H]1O[C@H](O[C@H]2[C@H](O)[C@@H](O)[C@@H](O[C@H]3[C@H](O)[C@@H](O)C(O)O[C@@H]3CO)O[C@@H]2CO)[C@H](O)[C@@H](O)[C@@H]1N[C@H]1C=C(CO)[C@@H](O)[C@H](O)[C@H]1O` (some centres unmarked) [Acarbose], the “clinical response of postprandial hypoglycemia” value in data set [1] (Case 5) is “controlled their symptoms”; in [1] (Cases 2 and 3), “Improvement occurred”. For the same compound, the “response of hypoglycemia episodes” value in data set [2] is “no improvement”.

As to `N[C@@H](CCC(=O)N[C@@H](CSN=O)C(=O)NCC(=O)O)C(=O)O` [GSNO], in data set [3], the “S-nitrosation of insulin signalling proteins in the hypothalamus” value is “enhance S-NO of IRβ and Akt”; the “food intake and body weight” value is “increased food intake and body weight”.

Take `N[C@@H](CC(=O)N1CCn2c(nnc2C(F)(F)F)C1)Cc1cc(F)c(F)cc1F` [Sitagliptin, sitagliptin]: in data set [4], the “change of HbA1c from baseline compared to placebo” value is recorded as -0.788.

`C=C1CC[C@H](O)C/C1=C/C=C1\CCC[C@]2(C)[C@@H]([C@H](C)CCCC(C)C)CC[C@@H]12` [VD, cholecalciferol]: the “patients with DKD at the beginning whose DKD stage improved” value in data set [5] (8/13 patients, 12 weeks) came to 62%. The “DKD prevalence at the end of the study” value in data set [5] (cholecalciferol 4000 or 10000 IU/day for 12 weeks, n = 22, 68% before) was 32%.

For `COc1ccc(CCN(C)CCCC(C#N)(c2ccc(OC)c(OC)c2)C(C)C)cc1OC` (centres unmarked) [Verapamil], in [2], the “response of hypoglycemia episodes” value is reported as “good response”.

As to `CCN(CC)CC#CCOC(=O)C(O)(c1ccccc1)C1CCCCC1` (centres unmarked) [oxybutynin], in data set [6], the “response of gustatory sweating” value is “excellent response as early as week 1” and the side effect result is on record as “mild side effect of xerostomia”.

Take `N#C[C@@H]1CCCN1C(=O)CNC12CC3CC(CC(O)(C3)C1)C2` [vildagliptin]: the “change of HbA1c from baseline compared to placebo” value in data set [4] is −0.60. Further, the “right ventricular systolic pressure (RVSP)” value in data set [7] (50 mg 2×/day, 6 months after its use, 45 mmHg before) was 38 mmHg. For the same compound, the fasting glycemia in data set [7] (6 months after its use) was found to be 111 mg/dL; in [7] (January/2017), 112 mg/dL. The A1c in [7] (6 months after its use, without episodes of hypoglycemia) is 6.0%; in data set [7] (January/2017), 6.5%. The compound further returned an RVSP in data set [7] (January/2017, 3 years of follow up) of 31 mmHg.

Consider `C=C1CC[C@H](O)C/C1=C/C=C1\CCC[C@]2(C)[C@@H]([C@H](C)/C=C/[C@H](C)C(C)C)CC[C@@H]12` [vitamin D], for which the “hydroperoxides levels vs placebo group” value in data set [8] (50.000 U/week, 90 days, p = 0.008) is “significant reduction”. The “FOX levels vs placebo group” value in data set [8] (50.000 U/week, 90 days, p = 0.08) is on record as “trend to decrease”. For the same compound, the “AOPP vs placebo group” value in [8] (one capsule/week 50.000 U for 90 days, plasma, p = 0.05) is reported as “significant reduction”.

For Ipilimumab, in data set [9] (four cycles, adjuvant treatment, about 3 weeks after the last cycle), the endocrinological side effects entry is “hypophysitis and pancreatitis, in addition to secondary diabetes”. The “hyperglycemia, levels” value in [9] (requiring insulinization) is listed as “above 400 mg/dL”.

In [10] (3 months of Metreleptin 5 mg/day with Metformin, […] before), “Metreleptin: a recombinant leptin analog” came in with a HbA1C of 5%. For the same compound, in [10] (after 3 months), the TGO is listed as 42 U/L and the TGP turned out to be 32 U/L.

(Values after article PMC5907308, “21st Brazilian Diabetes Society Congress” (Diabetology & Metabolic Syndrome, 2018).)
